pIC50: −log10 of the molar value. Counter-ions that a name gives are not always drawn.
Experiments:
NCI-H358 = assay: Antiproliferative activity against human NCI-H358 cells assessed as inhibition of cell growth incubated for 48 hrs by CCK8 assay; type: functional, cell-based; conditions: NCI-H358, 48 h
SW-620 = assay: Antiproliferative activity against human SW-620 cells assessed as inhibition of cell growth incubated for 48 hrs by CCK8 assay; type: functional, cell-based; conditions: SW-620, 48 h
ASPC1 = assay: Antiproliferative activity against human ASPC1 cells assessed as inhibition of cell growth incubated for 48 hrs by CCK8 assay; type: functional, cell-based; conditions: ASPC1, 48 h
[1] = Water solubility of compound; type: physicochemical; conditions: buffer
HCT-116 = assay: Antiproliferative activity against human HCT-116 cells assessed as inhibition of cell growth incubated for 48 hrs by CCK8 assay; type: functional, cell-based; conditions: HCT-116, 48 h

pIC50 (NCI-H358) | pIC50 (SW-620) | pIC50 (ASPC1) | solubility [1] | pIC50 (HCT-116) | SMILES
5.02 | 5.17 | 5.30 | Soluble | 4.46 | C[C@@H]1CC[C@@]2(OC1)O[C@H]1C[C@H]3[C@@H]4CC=C5C[C@@H](OC(=O)c6cccc(C(=O)NO)c6)CC[C@]5(C)[C@H]4CC[C@]3(C)[C@H]1[C@@H]2C
5.45 | 6.06 | 6.50 | Soluble | 5.38 | C[C@@H]1CC[C@@]2(OC1)O[C@H]1C[C@H]3[C@@H]4CC=C5C[C@@H](OC(=O)CCCC[P+](c6ccccc6)(c6ccccc6)C6CCCCC6)CC[C@]5(C)[C@H]4CC[C@]3(C)[C@H]1[C@@H]2C.[Br-]
5.44 | 5.94 | 6.54 | Soluble | 5.37 | C[C@@H]1CC[C@@]2(OC1)O[C@H]1C[C@H]3[C@@H]4CC=C5C[C@@H](OC(=O)CCCC[P+](c6ccccc6)(c6ccccc6)c6cccc(-c7ccccc7)c6)CC[C@]5(C)[C@H]4CC[C@]3(C)[C@H]1[C@@H]2C.[Br-]
4.45 | < 4.40 | 5.03 | Soluble | 4.45 | C[C@@H]1CC[C@@]2(OC1)O[C@H]1C[C@H]3[C@@H]4CC=C5C[C@@H](OC(=O)c6nccnc6C(=O)NO)CC[C@]5(C)[C@H]4CC[C@]3(C)[C@H]1[C@@H]2C
4.43 | 4.77 | 4.94 | Soluble | 4.41 | C[C@@H]1CC[C@@]2(OC1)O[C@H]1C[C@H]3[C@@H]4CC=C5C[C@@H](OC(=O)/C=C/C(=O)NO)CC[C@]5(C)[C@H]4CC[C@]3(C)[C@H]1[C@@H]2C
5.39 | 6.35 | 6.73 | Soluble | 5.40 | C[C@@H]1CC[C@@]2(OC1)O[C@H]1C[C@H]3[C@@H]4CC=C5C[C@@H](OC(=O)CCCC[P+](C6CCCCC6)(C6CCCCC6)C6CCCCC6)CC[C@]5(C)[C@H]4CC[C@]3(C)[C@H]1[C@@H]2C.[Br-]
5.66 | 5.93 | 5.96 | Soluble | 5.40 | CCCC[P+](CCCC)(CCCC)CCCCC(=O)O[C@H]1CC[C@@]2(C)C(=CC[C@H]3[C@@H]4C[C@@H]5O[C@]6(CC[C@@H](C)CO6)[C@@H](C)[C@@H]5[C@@]4(C)CC[C@@H]32)C1.[Br-]
5.77 | 5.17 | 6.19 | Soluble | 5.36 | C[C@@H]1CC[C@@]2(OC1)O[C@H]1C[C@H]3[C@@H]4CC=C5C[C@@H](OC(=O)CCCC[P+](c6ccc(Cl)cc6)(c6ccc(Cl)cc6)c6ccc(Cl)cc6)CC[C@]5(C)[C@H]4CC[C@]3(C)[C@H]1[C@@H]2C.[Br-]
4.82 | 4.97 | 5.11 | Soluble | 4.48 | Cc1cc(C(=O)NO)cc(C(=O)O[C@H]2CC[C@@]3(C)C(=CC[C@H]4[C@@H]5C[C@@H]6O[C@]7(CC[C@@H](C)CO7)[C@@H](C)[C@@H]6[C@@]5(C)CC[C@@H]43)C2)c1
5.36 | 5.61 | 5.67 | Soluble | 4.49 | C[C@@H]1CC[C@@]2(OC1)O[C@H]1C[C@H]3[C@@H]4CC=C5C[C@@H](OC(=O)CCCC(=O)NO)CC[C@]5(C)[C@H]4CC[C@]3(C)[C@H]1[C@@H]2C
4.90 | 5.72 | 5.64 | Soluble | 4.41 | C[C@@H]1CC[C@@]2(OC1)O[C@H]1C[C@H]3[C@@H]4CC=C5C[C@@H](OC(=O)CCCCC(=O)NO)CC[C@]5(C)[C@H]4CC[C@]3(C)[C@H]1[C@@H]2C
5.45 | 6.11 | 6.19 | Soluble | 5.37 | C[C@@H]1CC[C@@]2(OC1)O[C@H]1C[C@H]3[C@@H]4CC=C5C[C@@H](OC(=O)CCCC[P+](c6ccccc6)(c6ccccc6)c6ccccn6)CC[C@]5(C)[C@H]4CC[C@]3(C)[C@H]1[C@@H]2C.[Br-]
5.13 | 5.28 | 5.10 | Soluble | 4.50 | C[C@@H]1CC[C@@]2(OC1)O[C@H]1C[C@H]3[C@@H]4CC=C5C[C@@H](OC(=O)CCC(=O)NO)CC[C@]5(C)[C@H]4CC[C@]3(C)[C@H]1[C@@H]2C
5.42 | 5.85 | 6.14 | Soluble | 5.38 | C[C@@H]1CC[C@@]2(OC1)O[C@H]1C[C@H]3[C@@H]4CC=C5C[C@@H](OC(=O)CCCC[P+](c6ccc(F)cc6)(c6ccc(F)cc6)c6ccc(F)cc6)CC[C@]5(C)[C@H]4CC[C@]3(C)[C@H]1[C@@H]2C.[Br-]
4.64 | 4.96 | 4.64 | Soluble | < 4.40 | C[C@@H]1CC[C@@]2(OC1)O[C@H]1C[C@H]3[C@@H]4CC=C5C[C@@H](OC(=O)CCCCCCC(=O)NO)CC[C@]5(C)[C@H]4CC[C@]3(C)[C@H]1[C@@H]2C
4.87 | 5.02 | 5.13 | Soluble | 5.00 | C[C@@H]1CC[C@@]2(OC1)O[C@H]1C[C@H]3[C@@H]4CC=C5C[C@@H](OC(=O)CCCC[P+](C)(C)C)CC[C@]5(C)[C@H]4CC[C@]3(C)[C@H]1[C@@H]2C.[Br-]
4.57 | 4.54 | 5.12 | Soluble | 4.50 | CCCCCCCC[P+](CCCCCCCC)(CCCCCCCC)CCCCC(=O)O[C@H]1CC[C@@]2(C)C(=CC[C@H]3[C@@H]4C[C@@H]5O[C@]6(CC[C@@H](C)CO6)[C@@H](C)[C@@H]5[C@@]4(C)CC[C@@H]32)C1.[Br-]
5.45 | 5.36 | 5.58 | Soluble | 5.30 | CC[P+](CC)(CC)CCCCC(=O)O[C@H]1CC[C@@]2(C)C(=CC[C@H]3[C@@H]4C[C@@H]5O[C@]6(CC[C@@H](C)CO6)[C@@H](C)[C@@H]5[C@@]4(C)CC[C@@H]32)C1.[Br-]
4.98 | 4.63 | 4.82 | Soluble | 4.48 | C[C@@H]1CC[C@@]2(OC1)O[C@H]1C[C@H]3[C@@H]4CC=C5C[C@@H](OC(=O)CCCCCCCCC(=O)NO)CC[C@]5(C)[C@H]4CC[C@]3(C)[C@H]1[C@@H]2C
< 4.40 | < 4.40 | 4.20 |  | 4.50 | C[C@@H]1CC[C@@]2(OC1)O[C@H]1C[C@H]3[C@@H]4CC=C5C[C@@H](O)CC[C@]5(C)[C@H]4CC[C@]3(C)[C@H]1[C@@H]2C [DISOGENIN]
> 5.30 | > 5.30 | > 5.30 |  | < 5.90 | COc1cccc2c1C(=O)c1c(O)c3c(c(O)c1C2=O)C[C@@](O)(C(=O)CO)C[C@@H]3O[C@H]1C[C@H](N)[C@H](O)[C@H](C)O1 [DOXORUBICIN HYDROCHLORIDE]
